Reference: US10722515B2, “Dual CLK/CDK1 inhibitors for cancer treatment” (SRI INTERNATIONAL, priority 2016, dated 2020)
pIC50: −log10 of the molar value. Read-outs that look alike come from different tables or passages of the source.

Assays:
[1] = system: MDM2 alternate splicing in Rh-18 cells; assay: Rh-18 MDM2 RT-PCR gel-based assay (orthogonal secondary assay); format: cell-based; conditions: 10 μM, 8 h
Experimental: These hits were then subjected to a confirmatory assay in the Rh-18 MDM2 RT-PCR gel-based assay at a concentration of 10 μM.
Referring to FIG. 6, cells were exposed to 0.5% DMSO, 0.2 μM sudemycin D6 or […] CGP-74514A for 8 h. Total RNA was extracted by RNeasy Mini Kit (Qiagen). High capacity RNA-to-cDNA kit (Life technologies) was used to convert the RNA to cDNA.
Referring to FIG. 7, cells were exposed to 0.5% DMSO (lane 1), 1 μM sudemycin D6 (lane 2), 10 μM Compound 14 (lane 3), and 10 μM Compound 15 (lane 4) for 8 h. The total RNA was extracted by RNeasy Mini Kit (Qiagen). High capacity RNA-to-cDNA kit (Life technologies) was used to convert the RNA to cDNA. […] Ubiquitin transcripts (165 bp) in the same cells were used as a control (Fan et al. (2011) ACS Chem. Biol. 6: 582-9).

[2] = target: T1, CDK6/cyclinD3(h) (Homo sapiens, UniProt Q00534); assay: radiometric protein kinase assay, CDK6; format: biochemical; conditions: enzyme inhibition, ATP 20 μM
T1 construct: purchased Eurofins, Dundee, Scotland
T1 sequence (Q00534 whole entry): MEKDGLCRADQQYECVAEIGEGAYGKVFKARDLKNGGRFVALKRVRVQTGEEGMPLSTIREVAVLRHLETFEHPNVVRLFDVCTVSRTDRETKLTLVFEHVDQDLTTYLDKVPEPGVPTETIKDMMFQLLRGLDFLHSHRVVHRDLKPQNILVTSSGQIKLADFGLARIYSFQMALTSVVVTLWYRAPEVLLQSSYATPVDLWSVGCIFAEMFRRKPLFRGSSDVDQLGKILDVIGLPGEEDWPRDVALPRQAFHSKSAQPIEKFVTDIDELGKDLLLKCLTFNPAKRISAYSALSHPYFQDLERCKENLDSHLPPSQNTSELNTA
T1 sequence (P30281 whole entry partner): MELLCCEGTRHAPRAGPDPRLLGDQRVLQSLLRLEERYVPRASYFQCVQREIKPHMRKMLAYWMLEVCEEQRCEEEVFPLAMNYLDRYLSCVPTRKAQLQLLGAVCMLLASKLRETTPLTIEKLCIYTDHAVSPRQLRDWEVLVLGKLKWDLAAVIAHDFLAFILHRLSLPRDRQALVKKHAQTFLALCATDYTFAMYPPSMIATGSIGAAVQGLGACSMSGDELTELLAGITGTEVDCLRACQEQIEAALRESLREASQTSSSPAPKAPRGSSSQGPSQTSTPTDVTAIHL
Experimental: (§1) Enzymatic biochemical activities were evaluated in radiometric protein kinase assays (Eurofins, Dundee, Scotland). Kinases are incubated with buffer, substrate and [γ-^33P]-ATP (specific activity approx. 500 cpm/pmol, concentration as required). The reaction is initiated by the addition of the MgATP mix. After incubation for 40 minutes at room temperature, the reaction is stopped by the addition of 3% phosphoric acid solution. 10 μL of the reaction is then spotted onto a P30 filtermat and washed three times for 5 minutes in 75 mM phosphoric acid and once in methanol prior to drying and scintillation counting.
(§2) All compounds are prepared to 50× final assay concentration in 100% DMSO. Positive control wells contain all components of the reaction with 2% DMSO. Blank wells contain all components of the reaction, with a reference inhibitor replacing the compound of interest. Each kinase is assigned a standard assay concentration of ATP within 20 μM of its apparent KM. Compounds were screened at 1 μM in duplicate or tested at 10 concentrations at half log dilution starting from 10 μM in singlicate. Dose response curves were fitted with four parameter logistic curve to obtain IC50 values. The average coefficient of variation (CV) of the conducted assay is 4.4%.

[3] = system: SK-MEL-2/Luc-MDM2 cells (MDM2-Luc exon-skipping reporter); assay: cell-based MDM2-Luc exon-skipping reporter assay; conditions: for MDM2/Luc: luciferase activation vs DMSO control, average of three experiments
[4] = target: T2, CLK1(h) (Homo sapiens, UniProt P49759); assay: radiometric protein kinase assay, CLK1; format: biochemical
T2 construct: purchased Eurofins, Dundee, Scotland
T2 sequence (P49759 whole entry): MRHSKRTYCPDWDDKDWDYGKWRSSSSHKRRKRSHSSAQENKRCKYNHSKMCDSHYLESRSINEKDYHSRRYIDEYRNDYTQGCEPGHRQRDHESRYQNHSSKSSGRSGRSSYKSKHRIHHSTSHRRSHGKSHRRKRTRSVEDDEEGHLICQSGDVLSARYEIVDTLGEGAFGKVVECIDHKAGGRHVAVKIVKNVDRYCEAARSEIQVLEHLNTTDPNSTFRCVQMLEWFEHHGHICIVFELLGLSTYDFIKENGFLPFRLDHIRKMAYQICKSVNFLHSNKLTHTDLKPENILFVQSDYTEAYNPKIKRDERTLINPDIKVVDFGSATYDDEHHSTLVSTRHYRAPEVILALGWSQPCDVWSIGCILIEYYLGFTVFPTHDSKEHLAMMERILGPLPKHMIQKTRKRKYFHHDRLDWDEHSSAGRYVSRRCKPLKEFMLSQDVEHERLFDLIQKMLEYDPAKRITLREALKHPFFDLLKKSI
Experimental: as §1, §2

[5] = target: T3, CLK3(h) (Homo sapiens, UniProt P49761); assay: radiometric protein kinase assay, CLK3; format: biochemical
T3 construct: purchased Eurofins, Dundee, Scotland
T3 sequence (P49761 whole entry): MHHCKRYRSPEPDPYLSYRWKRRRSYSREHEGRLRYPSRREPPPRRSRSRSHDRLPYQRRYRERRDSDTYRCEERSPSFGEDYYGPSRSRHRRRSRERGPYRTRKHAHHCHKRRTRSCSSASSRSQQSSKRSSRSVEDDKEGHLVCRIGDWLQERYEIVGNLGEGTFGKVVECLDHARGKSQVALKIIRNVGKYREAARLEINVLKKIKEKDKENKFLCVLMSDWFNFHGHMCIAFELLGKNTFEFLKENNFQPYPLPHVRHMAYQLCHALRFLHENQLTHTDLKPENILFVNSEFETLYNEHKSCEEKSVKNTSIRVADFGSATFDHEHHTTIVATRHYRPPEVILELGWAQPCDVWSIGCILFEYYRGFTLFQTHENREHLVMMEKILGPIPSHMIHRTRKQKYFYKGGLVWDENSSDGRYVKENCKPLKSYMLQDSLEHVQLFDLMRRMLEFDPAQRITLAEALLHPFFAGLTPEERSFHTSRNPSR
Experimental: as §1, §2

[6] = target: T4, CLK2(h) (Homo sapiens, UniProt P49760); assay: radiometric protein kinase assay, CLK2; format: biochemical; conditions: enzyme inhibition, ATP 10 μM
T4 construct: purchased Eurofins, Dundee, Scotland
T4 sequence (P49760 whole entry): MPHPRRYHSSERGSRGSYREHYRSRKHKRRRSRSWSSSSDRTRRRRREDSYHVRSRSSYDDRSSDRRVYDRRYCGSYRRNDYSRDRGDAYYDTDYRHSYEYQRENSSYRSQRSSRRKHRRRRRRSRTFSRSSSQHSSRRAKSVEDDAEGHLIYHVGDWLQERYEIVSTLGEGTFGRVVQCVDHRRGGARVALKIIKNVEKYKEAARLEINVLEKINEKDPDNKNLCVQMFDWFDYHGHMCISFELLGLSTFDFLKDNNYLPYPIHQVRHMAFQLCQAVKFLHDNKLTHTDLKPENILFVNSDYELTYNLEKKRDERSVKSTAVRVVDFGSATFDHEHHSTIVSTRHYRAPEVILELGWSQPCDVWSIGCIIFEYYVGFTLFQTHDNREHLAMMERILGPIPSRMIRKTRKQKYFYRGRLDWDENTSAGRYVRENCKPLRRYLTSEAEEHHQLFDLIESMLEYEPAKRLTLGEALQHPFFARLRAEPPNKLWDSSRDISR
Experimental: as §1, §2

[7] = target: T5, CDK1/cyclinB(h) (Homo sapiens, UniProt P06493); assay: radiometric protein kinase assay, CDK1; format: biochemical; conditions: enzyme inhibition, ATP 45 μM
T5 construct: purchased Eurofins, Dundee, Scotland
T5 sequence (P06493 whole entry): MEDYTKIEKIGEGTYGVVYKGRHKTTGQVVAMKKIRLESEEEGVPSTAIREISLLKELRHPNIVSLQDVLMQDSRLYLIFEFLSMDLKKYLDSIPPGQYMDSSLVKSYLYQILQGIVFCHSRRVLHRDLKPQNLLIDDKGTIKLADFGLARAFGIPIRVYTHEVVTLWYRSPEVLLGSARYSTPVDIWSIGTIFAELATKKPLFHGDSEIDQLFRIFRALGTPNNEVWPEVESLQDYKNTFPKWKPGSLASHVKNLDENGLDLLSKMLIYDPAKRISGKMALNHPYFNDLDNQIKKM
T5 sequence (P14635 whole entry partner): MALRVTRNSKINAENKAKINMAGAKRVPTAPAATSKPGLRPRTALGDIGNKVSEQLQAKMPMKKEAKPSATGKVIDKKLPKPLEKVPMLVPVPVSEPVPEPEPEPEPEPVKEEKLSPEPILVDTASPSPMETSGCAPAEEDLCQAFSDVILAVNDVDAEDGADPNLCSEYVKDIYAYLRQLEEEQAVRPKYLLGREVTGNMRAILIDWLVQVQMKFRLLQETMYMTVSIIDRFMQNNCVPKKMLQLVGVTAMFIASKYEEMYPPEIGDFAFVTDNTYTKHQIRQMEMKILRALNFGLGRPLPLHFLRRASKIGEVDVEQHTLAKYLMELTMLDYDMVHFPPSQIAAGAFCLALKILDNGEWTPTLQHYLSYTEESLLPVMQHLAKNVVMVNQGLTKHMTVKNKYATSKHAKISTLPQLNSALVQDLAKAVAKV
Experimental: as §1, §2

[8] = target: T6, CLK4(h) (Homo sapiens, UniProt Q9HAZ1); assay: radiometric protein kinase assay, CLK4; format: biochemical; conditions: enzyme inhibition, ATP 10 μM
T6 construct: purchased Eurofins, Dundee, Scotland
T6 sequence (Q9HAZ1 whole entry): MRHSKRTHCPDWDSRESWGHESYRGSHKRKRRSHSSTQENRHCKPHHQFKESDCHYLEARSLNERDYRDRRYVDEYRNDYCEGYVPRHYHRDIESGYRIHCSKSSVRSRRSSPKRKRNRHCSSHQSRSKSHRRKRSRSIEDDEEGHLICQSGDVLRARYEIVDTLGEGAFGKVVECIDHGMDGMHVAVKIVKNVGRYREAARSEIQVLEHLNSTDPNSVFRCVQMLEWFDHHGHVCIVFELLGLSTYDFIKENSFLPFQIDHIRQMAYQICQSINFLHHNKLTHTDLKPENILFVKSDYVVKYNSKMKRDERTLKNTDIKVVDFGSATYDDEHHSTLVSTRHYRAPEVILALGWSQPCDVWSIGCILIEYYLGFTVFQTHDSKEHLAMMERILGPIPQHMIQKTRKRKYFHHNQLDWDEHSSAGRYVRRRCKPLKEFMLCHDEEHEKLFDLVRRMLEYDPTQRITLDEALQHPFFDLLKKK
Experimental: as §1, §2

[9] = target: T7, CDK4/cyclinD3(h) (Homo sapiens, UniProt P11802); assay: radiometric protein kinase assay, CDK4; format: biochemical; conditions: enzyme inhibition, ATP 20 μM
T7 construct: purchased Eurofins, Dundee, Scotland
T7 sequence (P11802 whole entry): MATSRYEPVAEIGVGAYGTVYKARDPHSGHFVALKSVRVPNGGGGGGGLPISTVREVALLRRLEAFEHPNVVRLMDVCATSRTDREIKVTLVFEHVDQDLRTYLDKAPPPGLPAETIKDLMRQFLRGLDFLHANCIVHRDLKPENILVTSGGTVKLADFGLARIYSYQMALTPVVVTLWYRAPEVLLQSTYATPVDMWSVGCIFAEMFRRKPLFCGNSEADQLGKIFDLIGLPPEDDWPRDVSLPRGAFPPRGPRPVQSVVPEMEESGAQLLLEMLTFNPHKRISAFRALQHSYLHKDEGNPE
T7 sequence (P30281 whole entry partner): as the sequence (P30281 whole entry partner) above
Experimental: as §1, §2

Row | SMILES | activity in the Rh-18 MDM2 RT-PCR gel-based confirmatory assay [1] | IC50 [2] | MDM2/Luc [3] | pIC50 [4] | pIC50 [5] | IC50 [6] | IC50 [7] | IC50 [8] | IC50 [9] | luciferase response (Luc fold) in the MDM2-Luc reporter assay ([3]; compared with less potent CLK inhibitors of the series) | MDM2-Luc activity ([3]; result in words, no concentration stated) | IC50 ([4]; enzyme inhibition, radiometric, ATP 10 μM, read-out: IC50 (nM) CLK1) | IC50 ([5]; enzyme inhibition, radiometric, ATP 90 μM, read-out: IC50 (nM) CLK3)
1 | CCn1cnc2c(Nc3cccc(Cl)c3)nc(NC3CCCCC3N)nc21 (racemic) [CGP-74514A (1), Racemicm-(Cis-2-Aminocyclohexyl)-N-(3-Chlorophenyl)-9-Ethyl-9H-Purine-2,6-Diamine, reference compound] | clear activity | > 1000 nM | Active | 6.83 | < 6.00 | 111 nM | 382 nM | 104 nM | 573 nM | – | – | – | –
2 | CC(=O)Nc1cc(Cl)cc(Nc2nc(NC3CCCCC3N)nc3c2ncn3C(C)C)c1 (racemic) [Compound 15, Racemic N-Cis(3-((2-((2-Aminocyclohexyl)Amino)-9-Isopropyl-9H-Purin-6-Yl)Amino)-5-Chlorophenyl)Acetamide] | confirmation | > 1000 nM | Active | – | – | 13 nM | > 1000 nM | 64 nM | 930 nM | stronger luciferase response | strong MDM2-Luc activity | 19 nM | > 1000 nM
